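Grown in 96-well plates, cells were treated for 48 hours with each compound at five concentrations. Insufficient inhibition: endpoint recorded as highest concentration tested. GI50 is the concentration that inhibits growth by half.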 Calls of active or inactive are those of the source. Rule as the data show it: active = GI50 up to about 1.1 µM and inactive = higher.
What was measured:
Experiment in all cases: growth of human tumour cells (NCI), 48 h
DMS-273 = test system: DMS-273
NCI-H23 = test system: NCI-H23
SN12C = test system: SN12C
SW-620 = test system: SW-620
SR = test system: SR
HCT-116 = test system: HCT-116
OVCAR-8 = test system: OVCAR-8
SK-MEL-2 = test system: SK-MEL-2
HT-29 = test system: HT-29
DU-145 = test system: DU-145
BT-549 = test system: BT-549
SK-MEL-5 = test system: SK-MEL-5
M14 = test system: M14
SF-268 = test system: SF-268
MOLT-4 = test system: MOLT-4
786-0 = test system: 786-0
MCF7 = test system: MCF7
NCI/ADR-RES = test system: NCI/ADR-RES
CAKI-1 = test system: CAKI-1
Hs-578T = test system: Hs-578T
DLD-1 = test system: DLD-1
RPMI-8226 = test system: RPMI-8226
HOP-92 = test system: HOP-92
SK-OV-3 = test system: SK-OV-3
KM12 = test system: KM12
SK-MEL-28 = test system: SK-MEL-28
A498 = test system: A498
PC-3 = test system: PC-3
TK-10 = test system: TK-10
UO-31 = test system: UO-31
SNB-19 = test system: SNB-19
LOX IMVI = test system: LOX IMVI
Malme-3M = test system: Malme-3M
NCI-H522 = test system: NCI-H522
UACC-62 = test system: UACC-62
COLO 205 = test system: COLO 205
T47D = test system: T47D
SF-539 = test system: SF-539
SF-295 = test system: SF-295
MDA-N = test system: MDA-N
CCRF-CEM = test system: CCRF-CEM
EKVX = test system: EKVX
U-251 = test system: U-251
NCI-H460 = test system: NCI-H460
RXF 393 = test system: RXF 393
ACHN = test system: ACHN
NCI-H226 = test system: NCI-H226
HCC 2998 = test system: HCC 2998
HOP-62 = test system: HOP-62
OVCAR-3 = test system: OVCAR-3
MDA-MB-435 = test system: MDA-MB-435
OVCAR-5 = test system: OVCAR-5
HCT-15 = test system: HCT-15
K562 = test system: K562
MDA-MB-231 = test system: MDA-MB-231
SNB-75 = test system: SNB-75
OVCAR-4 = test system: OVCAR-4
UACC-257 = test system: UACC-257
A549 = test system: A549
HL-60 = test system: HL-60
IGROV-1 = test system: IGROV-1

COc1ccc2c(c1)-c1nn(CCCN(C)C)c3ccc([N+](=O)[O-])c(c13)N2
GI50 (DMS-273): 0.161 µM (active)
GI50 (NCI-H23): 0.398 µM (active)
GI50 (SN12C): 0.103 µM (active)
GI50 (SW-620): 0.0719 µM (active)
GI50 (SR): 0.13 µM (active)
GI50 (HCT-116): 0.0787 µM (active)
GI50 (OVCAR-8): 0.121 µM (active)
GI50 (SK-MEL-2): 0.676 µM (active)
GI50 (HT-29): 0.102 µM (active)
GI50 (DU-145): 0.254 µM (active)
GI50 (BT-549): 1.23 µM (inactive)
GI50 (SK-MEL-5): 0.33 µM (active)
GI50 (M14): 0.361 µM (active)
GI50 (SF-268): 0.207 µM (active)
GI50 (MOLT-4): 0.106 µM (active)
GI50 (786-0): 0.0991 µM (active)
GI50 (MCF7): 0.239 µM (active)
GI50 (NCI/ADR-RES): 0.124 µM (active)
GI50 (CAKI-1): 0.261 µM (active)
GI50 (Hs-578T): 0.48 µM (active)
GI50 (DLD-1): 0.181 µM (active)
GI50 (RPMI-8226): 0.201 µM (active)

Cc1ccc2c(c1)C(C1Cc3cccc(C)c3C1=O)OC2=O (stereo not given)
GI50 (HOP-92): > 100 µM (inactive)
GI50 (SK-OV-3): > 100 µM (inactive)
GI50 (NCI-H23): > 100 µM (inactive)
GI50 (KM12): 96.2 µM (inactive)
GI50 (SN12C): > 100 µM (inactive)
GI50 (SW-620): > 100 µM (inactive)
GI50 (SK-MEL-28): > 100 µM (inactive)
GI50 (A498): 46.2 µM (inactive)
GI50 (PC-3): > 100 µM (inactive)
GI50 (SR): 60.8 µM (inactive)
GI50 (TK-10): > 100 µM (inactive)
GI50 (HCT-116): > 100 µM (inactive)
GI50 (UO-31): > 100 µM (inactive)
GI50 (SNB-19): > 100 µM (inactive)
GI50 (LOX IMVI): 34.2 µM (inactive)
GI50 (OVCAR-8): > 100 µM (inactive)
GI50 (SK-MEL-2): > 100 µM (inactive)
GI50 (Malme-3M): > 100 µM (inactive)
GI50 (HT-29): > 100 µM (inactive)
GI50 (NCI-H522): > 100 µM (inactive)
GI50 (DU-145): > 100 µM (inactive)
GI50 (UACC-62): 94.6 µM (inactive)
GI50 (COLO 205): > 100 µM (inactive)
GI50 (BT-549): > 100 µM (inactive)
GI50 (SK-MEL-5): 56.4 µM (inactive)
GI50 (M14): > 100 µM (inactive)
GI50 (SF-268): > 100 µM (inactive)
GI50 (T47D): > 100 µM (inactive)
GI50 (SF-539): > 100 µM (inactive)
GI50 (SF-295): > 100 µM (inactive)
GI50 (MDA-N): > 100 µM (inactive)
GI50 (CCRF-CEM): > 100 µM (inactive)
GI50 (EKVX): 67.6 µM (inactive)
GI50 (U-251): > 100 µM (inactive)
GI50 (MOLT-4): 96.4 µM (inactive)
GI50 (786-0): > 100 µM (inactive)
GI50 (MCF7): 81.1 µM (inactive)
GI50 (NCI-H460): > 100 µM (inactive)
GI50 (NCI/ADR-RES): > 100 µM (inactive)
GI50 (CAKI-1): > 100 µM (inactive)
GI50 (Hs-578T): > 100 µM (inactive)
GI50 (RXF 393): 22.4 µM (inactive)
GI50 (ACHN): > 100 µM (inactive)
GI50 (NCI-H226): 72.9 µM (inactive)
GI50 (HCC 2998): > 100 µM (inactive)
GI50 (HOP-62): > 100 µM (inactive)
GI50 (OVCAR-3): > 100 µM (inactive)
GI50 (MDA-MB-435): 47.5 µM (inactive)
GI50 (OVCAR-5): > 100 µM (inactive)
GI50 (HCT-15): > 100 µM
GI50 (K562): 84.3 µM (inactive)
GI50 (MDA-MB-231): > 100 µM (inactive)
GI50 (SNB-75): 81.5 µM (inactive)
GI50 (OVCAR-4): 75.3 µM (inactive)
GI50 (UACC-257): > 100 µM (inactive)
GI50 (A549): > 100 µM (inactive)
GI50 (HL-60): 35.8 µM (inactive)
GI50 (RPMI-8226): 30.3 µM (inactive)
GI50 (IGROV-1): > 100 µM (inactive)

CC(=O)O[C@H]1CC[C@@]2(C)C(=CC[C@H]3[C@@H]4C[C@H](N5CCCC5)[C@H](OC(C)=O)[C@@]4(C)CC[C@@H]32)C1
GI50 (HOP-92): > 100 µM (inactive)
GI50 (SK-OV-3): > 100 µM (inactive)
GI50 (NCI-H23): > 100 µM (inactive)
GI50 (KM12): > 100 µM (inactive)
GI50 (SN12C): > 100 µM (inactive)
GI50 (SW-620): > 100 µM (inactive)
GI50 (SK-MEL-28): 39.8 µM (inactive)
GI50 (A498): > 100 µM (inactive)
GI50 (PC-3): > 100 µM (inactive)
GI50 (SR): > 100 µM (inactive)
GI50 (TK-10): > 100 µM (inactive)
GI50 (HCT-116): > 56.5 µM (inactive)
GI50 (UO-31): > 100 µM (inactive)
GI50 (SNB-19): > 100 µM (inactive)
GI50 (LOX IMVI): 49.2 µM (inactive)
GI50 (OVCAR-8): > 100 µM (inactive)
GI50 (SK-MEL-2): > 100 µM (inactive)
GI50 (Malme-3M): 33.7 µM (inactive)
GI50 (HT-29): 21.7 µM (inactive)
GI50 (NCI-H522): > 100 µM (inactive)
GI50 (DU-145): > 100 µM (inactive)
GI50 (UACC-62): > 56.1 µM (inactive)
GI50 (COLO 205): > 100 µM (inactive)
GI50 (BT-549): > 100 µM (inactive)
GI50 (SK-MEL-5): 23 µM (inactive)
GI50 (M14): 18.2 µM (inactive)
GI50 (SF-268): > 100 µM (inactive)
GI50 (T47D): > 100 µM (inactive)
GI50 (SF-539): 29.3 µM (inactive)
GI50 (SF-295): > 100 µM (inactive)
GI50 (MDA-N): > 51.1 µM (inactive)
GI50 (CCRF-CEM): > 67.8 µM (inactive)
GI50 (EKVX): > 100 µM (inactive)
GI50 (U-251): > 100 µM (inactive)
GI50 (MOLT-4): > 81.5 µM (inactive)
GI50 (786-0): > 100 µM (inactive)
GI50 (MCF7): > 100 µM (inactive)
GI50 (NCI-H460): > 100 µM (inactive)
GI50 (NCI/ADR-RES): > 100 µM (inactive)
GI50 (CAKI-1): > 100 µM (inactive)
GI50 (Hs-578T): > 100 µM (inactive)
GI50 (RXF 393): > 100 µM (inactive)
GI50 (ACHN): > 100 µM (inactive)
GI50 (NCI-H226): > 100 µM (inactive)
GI50 (HCC 2998): > 93.3 µM (inactive)
GI50 (HOP-62): > 100 µM (inactive)
GI50 (OVCAR-3): > 86.3 µM (inactive)
GI50 (MDA-MB-435): 32 µM (inactive)
GI50 (OVCAR-5): > 100 µM (inactive)
GI50 (HCT-15): > 100 µM
GI50 (K562): 33.1 µM (inactive)
GI50 (MDA-MB-231): > 100 µM (inactive)
GI50 (SNB-75): > 100 µM (inactive)
GI50 (OVCAR-4): > 100 µM (inactive)
GI50 (UACC-257): 38 µM (inactive)
GI50 (A549): > 100 µM (inactive)
GI50 (HL-60): > 45.7 µM (inactive)
GI50 (RPMI-8226): > 60.1 µM (inactive)
GI50 (IGROV-1): > 100 µM (inactive)

Source: ChEMBL document CHEMBL1201862, “PubChem BioAssay data set” (2004)
